Experimental data from patent US20180036295A1, “METHODS FOR TREATING PROTEINOPATHIES” (Genzyme Corporation, priority 2015, published 2018).

Assays:
Assay type in all cases: in vivo, mouse
Gba1^D409V/D409V mice [1] = experiment: NOR and FC tests in Gba1^D409V/D409V mice with Compound 2 (Example 34); details: diet containing Compound 2
Protocol: Gba1^D409V/D409V mice are bred and treated substantially as described in Example 24. Mice are fed a control diet or a diet containing a quinuclidine compound substantially as described in Example 25, except that the compound administered is Compound 2.
The NOR test and the FC test are performed substantially as described in Example 25.

[2] = system: protein aggregates (ubiquitin, α-synuclein and/or protein tau); experiment: Protein aggregation in brains of Gba1^D409V/D409V mice with Compound 2 (Example 35); details: diet containing Compound 2
Protocol: Wild-type (WT) and Gba1^D409V/D409V mice are fed the control diet or a diet containing a quinuclidine compound substantially as described in Example 27, except that the compound administered is Compound 2.
The accumulation of proteins (ubiquitin, α-synuclein and protein tau) is determined by hippocampal quantification and protein immuoreactivity as described in Example 27.

[3] = Tissue distribution of Compound 1 in brain and liver after oral administration in food; details: Gba1^D409V/D409V mice
Protocol: Gba1^D409V/D409V mice (harboring a point mutation at residue 409 in the murine Gba1 gene) were bred under a protocol approved by the Institutional Animal Care and Use Committee. Treatments were administered as described and the animals were humanely sacrificed at pre-determined time points or upon reaching a humane endpoint.
A subset of Gba1^D409V/D409V mice received Compound 1 administered in food using a formulation calculated to provide 60 mg/kg/day. Drug administration was initiated when pups were weaned at 4 weeks of age and continued until euthanasia at 4 or 10 months of age. The concentration of Compound 1 in brain and liver tissues was determined by mass spectrometry (see e.g. Ramanathan et al. “The emergence of high-resolution MS as the premier analytical tool in the pharmaceutical bioanalysis arena” Bioanalysis. March 2012; 4(5):467-469).

Gba1^D409V/D409V mice [4] = experiment: Novel object recognition (NOR) test in Gba1^D409V/D409V mice; details: 60 mg/kg/day in food from 4 weeks of age, tested at 3 months; FIG. 1
Protocol: (§1) Gba1^D409V/D409V mice were bred and treated according to Example 24.
(§2) Mice were fed the control diet or the Compound 1 diet as described in Example 24.
In the NOR test, […] wild type (WT) and Gba1^D409V/D409V mice were dosed with Compound 1 starting at 4 weeks of age and were subjected to the NOR test at 3 months (2 months post-treatment).
Mice were individually habituated to explore an open-field box for 5 minutes. During the first training session (T1), two identical objects were symmetrically placed into the open field 14 inches from each other. Animals were allowed to explore for 5 minutes. The number of investigations was recorded by a blinded investigator. After a 24 hour retention period, animals were tested (T2) for their recognition of a novel object. Mice were placed back into the open-field box for 5 minutes, and the time spent investigating the familiar and novel objects was recorded.
Statistical analyses were performed by Student's t-test or analysis of variance (ANOVA) followed by Newman-Keuls' post-hoc test. Preference for novelty was defined as investigating the novel object more than 50% of the time by a one-sample t-test. All statistical analyses were performed with GraphPad Prism v4.0 (GraphPad Software, San Diego, Calif.). Values of p<0.05 were considered significant.

Gba1^D409V/D409V mice [5] = experiment: Fear conditioning (FC) tests in Gba1^D409V/D409V mice; details: ten month-old mice, 60 mg/kg/day in food
Source text: as §1, §2
Ten month-old wild type (WT) and Gba1^D409V/D409V mice were subjected to FC memory tests. For the FC tests, mice were trained in four of the Med Associates® Near Infrared Fear Conditioning System chambers (St. Albans, Vt.). Mice were placed in the contextual fear chamber in “Context A,” which consists of lighting, a neutral background and a stainless steel grid floor. The mice were trained with a 3-trial delay-cued protocol as defined below. The mice were first given 2 minutes to explore the chamber in Context A before a conditioned stimulus (CS) of a 2000 Hz cue was given. Thirty seconds later a one second unconditioned stimulus (US) of 0.6 mA foot shock was applied. With an inter-trial interval (ITI) of 30 sec, this US-CS response was repeated three times. After a 24 hour retention period, mice were brought back to the testing room and habituated to the room for 1 hour. The mice were again placed in Context A for 5 minutes and freezing to the context was recorded. Freezing (defined as the lack of movement, except for respiration) was recorded using a near-infrared camera system. […] Again, freezing to the novel environment and the cue were assessed with the near infrared camera system. […]

[6] = system: mice overexpressing A53T α-synuclein; experiment: Novel object recognition (NOR) test in A53T mice; details: A53T mice dosed from 6 weeks of age, tested at 4.5 months; FIG. 3
[7] = system: mice overexpressing A53T α-synuclein; experiment: Fear conditioning (FC) tests in A53T mice; details: eight months of age
human A53T-α-synuclein = experiment: Subcellular localization of α-synuclein in cortical tissue homogenates of A53T mice (serial fractionation, ELISA); details: cortex, 8 months of age
protein tau aggregates = experiment: Hippocampal quantification of protein tau aggregates in A53T mice; details: 8 months of age, FIG. 14
Protocol: For histological analysis, mice were perfused with cold PBS. Brains were removed and post-fixed in 10% (v/v) neutral buffered formalin for 48 hours. Tissues were then placed in 30% sucrose, embedded and sectioned at 20 μm in a cryostat. Some tissues were pretreated with proteinase K (1:4 dilution; DAKO, Carpinteria, Calif.) for 7 minutes at room temperature to expose α-synuclein and other aggregated proteins. […] For α-synuclein aggregate quantification, a cyanine 3-tyramide signal amplification kit was used (PerkinElmer, Waltham, Mass.). […]
For morphometric analysis, sections were imaged with a SPOT camera (Diagnostic Instruments, Sterling Heights, Mich.) paired with a Nikon Eclipse E800 fluorescence microscope equipped with a 20λ objective lens. […] For ubiquitin and tau quantification, the same threshold was used for all images such that the aggregates were positively counted and the threshold area was recorded for each image in pixels. For α-synuclein quantification, each image was analyzed individually using a range of threshold values to quantify the area of the aggregates accurately and eliminate variable background signals. […] The percent threshold area was calculated and expressed as mean±SEM. […]

[8] = system: symptomatic Gba1^D409V/D409V mice; experiment: NOR test in post-symptomatic Gba1^D409V/D409V mice; details: treatment from approximately 6 months of age, tested at 12 months, n=13, p<0.05; FIG. 16
Protocol: Gba1^D409V/D409V mice were bred and treated according to Example 24. Mice were fed the control diet or the Compound 1 diet as described in Example 24, except that drug administration was initiated when animals were approximately 6 months of age, and continued until euthanasia at 13 months of age.
Hippocampal memory was evaluated with the NOR test according to Example 25, except that the mice were tested at 6 months of age (before treatment) and again 6 months later, at 12 months of age (after treatment).

[9] = system: protein aggregates (ubiquitin, α-synuclein and/or protein tau); experiment: Protein aggregation in brains of post-symptomatic Gba1^D409V/D409V mice (Example 33); details: administration initiated after symptoms of cognitive impairment, approximately 6 months of age
Protocol: Wild-type (WT) and Gba1^D409V/D409V mice are bred and treated substantially as described in Example 27, except that drug administration is initiated when animals are symptomatic for cognitive impairment, e.g. at approximately 6 months of age.
The accumulation of proteins (ubiquitin, α-synuclein and protein tau) is determined by hippocampal quantification and protein immunoreactivity substantially as described in Example 27.

[10] = in food, 60 mg/kg/day, mass spectrometry

SMILES | memory deficit (NOR and FC tests) (Gba1^D409V/D409V mice [1]) | accumulation of protein aggregates (ubiquitin, α-synuclein and/or protein tau) in the brains [2] | concentration in the brain as percentage of the concentration in the liver ([3]; in food, 60 mg/kg/day) | tissue exposure in the cortex [3, 10] [ng/g tissue] | tissue exposure in the liver [3, 10] [ng/g tissue] | blood-brain barrier penetration ([3]; oral in food) | NOR test, target investigations of novel object during testing (T2) (Gba1^D409V/D409V mice [4]) | FC test, contextual memory (freezing responses) (Gba1^D409V/D409V mice [5]; FIG. 2A) | FC test, cued memory (Gba1^D409V/D409V mice [5]; FIG. 2B) | NOR test, target investigations of novel object during testing (T2) [6] | FC test, contextual memory (freezing responses) ([7]; FIG. 4A) | FC test, cued memory ([7]; FIG. 4B) | level of insoluble α-synuclein (human A53T-α-synuclein; SDS-soluble fraction, n=14, P<0.01, FIG. 11C) | level of cytosolic soluble α-synuclein (human A53T-α-synuclein; Tris-soluble fraction, n=14, P=0.17, FIG. 11A) | level of membrane-associated α-synuclein (human A53T-α-synuclein; Triton-soluble fraction, n=14, P<0.05, FIG. 11B) | level of protein tau aggregates in hippocampus (protein tau aggregates) | NOR test, investigation of novel object during testing trial [8] | accumulation of protein aggregates (ubiquitin, α-synuclein and/or protein tau) in the brains [9]
CC(C)(NC(=O)O[C@@H]1CN2CCC1CC2)c1csc(-c2ccc(F)cc2)n1 [Compound 2, (S)-quinuclidin-3-yl 2-(2-(4-fluorophenyl)thiazol-4-yl)propan-2-ylcarbamate] | improve memory deficit | measurable reduction |  |  |  |  |  |  |  |  |  |  |  |  |  |  |  | 
CC(C)(NC(=O)OC1CN2CCC1CC2)c1cccc(-c2ccc(F)cc2)c1 (stereo not drawn) [Compound 1, 1-azabicyclo[2.2.2]oct-3-yl [2-(4′-fluorobiphenyl-3-yl)propan-2-yl]carbamate] |  |  | approximately 2% | 217±12 | 10512±603 | crosses the blood-brain barrier | trend to reversal of their memory deficit | improved the freezing responses | no effect | trend to reversal of their memory deficit | improved the freezing responses | only a marginal effect | 81±3 % of the control value | 114±8 % of the control value | 75±8 % of the control value | significant reduction | recovered the ability to investigate the unfamiliar object | measurable reduction
